Reference: article PMC6934184, “Selective DNA-PKcs inhibition extends the therapeutic index of localized radiotherapy and chemotherapy” (The Journal of Clinical Investigation, 2019)

Target: T1, MAP3K3 (MEKK3) (Homo sapiens, UniProt Q99759)
T1 construct: purchased Thermo Fisher Scientific (Life Technologies) SelectScreen
Test: SelectScreen LanthaScreen
Type: binding
Settings: read-out: % displacement
Method in brief: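 Percent values come from Thermo SelectScreen profiling of NU5455, combining activity and binding assays. CSF1R was run in Z'LYTE format at Km app ATP, and CAMK1 in Adapta format with ATP listed at 10.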

T1 sequence (Q99759 whole entry): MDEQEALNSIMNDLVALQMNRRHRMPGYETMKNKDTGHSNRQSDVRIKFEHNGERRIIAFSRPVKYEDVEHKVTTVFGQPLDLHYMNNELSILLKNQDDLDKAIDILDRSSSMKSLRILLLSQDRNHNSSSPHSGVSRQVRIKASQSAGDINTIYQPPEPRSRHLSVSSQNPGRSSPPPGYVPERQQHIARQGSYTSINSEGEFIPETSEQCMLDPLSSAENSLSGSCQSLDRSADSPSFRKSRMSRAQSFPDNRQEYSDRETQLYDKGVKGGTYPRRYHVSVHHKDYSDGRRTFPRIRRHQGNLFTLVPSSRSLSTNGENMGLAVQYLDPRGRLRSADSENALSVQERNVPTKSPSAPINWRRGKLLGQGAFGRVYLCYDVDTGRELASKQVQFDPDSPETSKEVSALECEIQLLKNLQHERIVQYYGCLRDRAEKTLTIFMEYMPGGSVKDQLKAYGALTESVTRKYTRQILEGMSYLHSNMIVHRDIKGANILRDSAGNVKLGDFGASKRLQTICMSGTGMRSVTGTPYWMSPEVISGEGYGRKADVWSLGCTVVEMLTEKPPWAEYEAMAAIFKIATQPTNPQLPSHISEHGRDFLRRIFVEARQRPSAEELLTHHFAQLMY

For CN(C(=O)CN1CCOCC1)c1ccc2sc3c(-c4cccc5c(=O)cc(N6CC7CCC(C6)O7)oc45)cccc3c2c1 [NU5455], which inhibition at 1 µM is on record?
The inhibition at 1 µM was -1.1%.
